Experimental data taken from patent US10214519B2, “Phosphatidylinositol 3-kinase inhibitors” (Gilead Sciences, Inc., priority 2016, dated 2019).
pIC50: −log10 of the molar value.

These compounds were tested against PI3Kβ (Homo sapiens (Human), UniProt P42338) (assay: PI3K isoform TR-FRET enzymatic assay (PI3Kβ)). Settings: 2× Km ATP, 30 minutes at 25° C.
Format: biochemical
Outline: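 Heterodimeric recombinant PI3Kβ was incubated with compound 30 minutes at 25° C. Product was detected by TR-FRET competition with 10 nM labeled PIP3 for 35 nM Eu-GRP-1 PH domain after EDTA stop. Data were normalized to 1 μM wortmannin and DMSO, and IC50 was taken from a four-parameter fit.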

Chain of PI3Kβ (P42338 whole entry, canonical isoform): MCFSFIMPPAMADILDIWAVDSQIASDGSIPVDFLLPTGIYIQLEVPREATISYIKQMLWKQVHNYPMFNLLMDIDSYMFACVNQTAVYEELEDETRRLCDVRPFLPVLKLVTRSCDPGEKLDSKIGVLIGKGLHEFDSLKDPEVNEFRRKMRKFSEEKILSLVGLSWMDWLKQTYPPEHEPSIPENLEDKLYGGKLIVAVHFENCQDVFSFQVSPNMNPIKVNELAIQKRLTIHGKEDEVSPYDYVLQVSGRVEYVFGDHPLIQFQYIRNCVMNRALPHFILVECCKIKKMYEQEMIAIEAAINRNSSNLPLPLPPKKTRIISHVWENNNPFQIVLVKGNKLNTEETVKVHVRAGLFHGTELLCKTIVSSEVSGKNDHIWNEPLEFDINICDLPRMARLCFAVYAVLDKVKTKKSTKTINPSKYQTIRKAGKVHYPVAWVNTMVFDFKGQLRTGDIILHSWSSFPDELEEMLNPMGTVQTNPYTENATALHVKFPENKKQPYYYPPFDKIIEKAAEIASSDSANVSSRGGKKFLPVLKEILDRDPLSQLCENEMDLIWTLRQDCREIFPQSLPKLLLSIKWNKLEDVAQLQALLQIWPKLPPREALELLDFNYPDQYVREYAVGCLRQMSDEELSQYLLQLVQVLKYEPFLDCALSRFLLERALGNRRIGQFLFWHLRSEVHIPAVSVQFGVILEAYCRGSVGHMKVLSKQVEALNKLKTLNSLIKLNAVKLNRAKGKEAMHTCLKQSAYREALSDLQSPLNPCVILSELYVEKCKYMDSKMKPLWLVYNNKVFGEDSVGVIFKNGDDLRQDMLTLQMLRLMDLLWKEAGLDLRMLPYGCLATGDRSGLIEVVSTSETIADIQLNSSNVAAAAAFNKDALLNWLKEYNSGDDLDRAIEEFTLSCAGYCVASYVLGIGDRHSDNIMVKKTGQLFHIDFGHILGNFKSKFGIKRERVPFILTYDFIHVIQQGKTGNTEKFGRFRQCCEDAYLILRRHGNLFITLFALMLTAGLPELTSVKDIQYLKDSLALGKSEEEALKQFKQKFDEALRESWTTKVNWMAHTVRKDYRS
Chain of PI3Kβ (P27986 whole entry partner, canonical isoform): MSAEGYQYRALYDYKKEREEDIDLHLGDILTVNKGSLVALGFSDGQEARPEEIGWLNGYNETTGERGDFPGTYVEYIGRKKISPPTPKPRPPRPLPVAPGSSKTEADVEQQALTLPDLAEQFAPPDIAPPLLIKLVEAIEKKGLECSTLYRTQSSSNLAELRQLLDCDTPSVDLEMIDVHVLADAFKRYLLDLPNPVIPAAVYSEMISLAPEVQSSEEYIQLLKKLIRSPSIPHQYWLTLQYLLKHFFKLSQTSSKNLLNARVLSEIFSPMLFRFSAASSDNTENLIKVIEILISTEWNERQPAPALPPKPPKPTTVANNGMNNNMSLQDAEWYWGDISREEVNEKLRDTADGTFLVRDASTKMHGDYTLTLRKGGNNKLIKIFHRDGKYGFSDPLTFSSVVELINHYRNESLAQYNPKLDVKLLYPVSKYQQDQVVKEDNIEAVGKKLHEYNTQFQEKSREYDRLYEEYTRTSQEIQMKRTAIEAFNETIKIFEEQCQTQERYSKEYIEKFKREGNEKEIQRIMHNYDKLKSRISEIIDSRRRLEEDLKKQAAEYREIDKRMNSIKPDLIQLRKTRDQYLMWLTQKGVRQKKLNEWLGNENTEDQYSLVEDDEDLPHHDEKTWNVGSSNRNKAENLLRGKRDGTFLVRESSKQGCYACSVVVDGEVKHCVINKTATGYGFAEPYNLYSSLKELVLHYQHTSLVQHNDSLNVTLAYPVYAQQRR

Compound | pIC50
Cc1cnc2c(C#N)cccc2c1-n1c(C)nc2c(-c3nnc[nH]3)cc(N3CCOCC3)cc21 (atropisomer, axis not shown) [Compound 374, 3-methyl-4-(2-methyl-6-morpholino-4-(4H-1,2,4-triazol-3-yl)-1H-benzo[d]imidazol-1-yl)quinoline-8-carbonitrile] | 7.66
Cc1nc2c(-c3cccc(C(N)=O)c3)cc(N3CCOCC3)cc2n1-c1ccnc2c(Cl)cccc12 [Example 321, 3-[1-(8-chloroquinolin-4-yl)-2-methyl-6-morpholin-4-ylbenzimidazol-4-yl]benzamide] | 5.36
Fc1cccc2c(-n3c(CC4CC4)nc4c(-c5cnc(Cl)[nH]5)cc(N5CCOCC5)cc43)ccnc12 [Example 304, 4-[7-(2-chloro-1H-imidazol-5-yl)-2-(cyclopropylmethyl)-3-(8-fluoroquinolin-4-yl)benzimidazol-5-yl]morpholine] | 7.09
Cc1nc2c(F)cccc2c(-n2c(C)nc3c(-c4nnc[nH]4)cc(N4CCOCC4)cc32)c1C [Example 61, 4-[3-(8-fluoro-2,3-dimethylquinolin-4-yl)-2-methyl-7-(4H-1,2,4-triazol-3-yl)benzimidazol-5-yl]morpholine] | 7.57
Cc1nc2c(-c3nnc[nH]3)cc(N3CCOCC3)c(F)c2n1-c1ccnc2c(Cl)cccc12 [Example 91, 4-[3-(8-chloroquinolin-4-yl)-4-fluoro-2-methyl-7-(4H-1,2,4-triazol-3-yl)benzimidazol-5-yl]morpholine] | 7.72
Cc1nc2c(-c3cccs3)cc(N3CCOCC3)cc2n1-c1ccnc2c(Cl)cccc12 [Example 271, 4-[3-(8-chloroquinolin-4-yl)-2-methyl-7-thiophen-2-ylbenzimidazol-5-yl]morpholine] | 7.34
Cc1nc2c(-c3cccnc3)cc(N3CCOCC3)cc2n1-c1ccnc2c(Cl)cccc12 [Example 317, 4-[3-(8-chloroquinolin-4-yl)-2-methyl-7-pyridin-3-ylbenzimidazol-5-yl]morpholine] | 6.16
Cc1nnc(-c2cc(N3CCOCC3)cc3c2ncn3-c2ccnc3c(Cl)c(F)ccc23)[nH]1 [Example 40, 4-(1-(8-chloro-7-fluoroquinolin-4-yl)-4-(5-methyl-4H-1,2,4-triazol-3-yl)-1H-benzo[d]imidazol-6-yl)morpholine] | 7.66
Cc1nc2c(-c3nnc[nH]3)cc(N3CCOCC3)cc2n1-c1cc(C(F)(F)F)nc2c(Cl)cccc12 [Example 58, 4-[3-[8-chloro-2-(trifluoromethyl)quinolin-4-yl]-2-methyl-7-(4H-1,2,4-triazol-3-yl)benzimidazol-5-yl]morpholine] | 7.21
Cc1nc2c(-c3cnccn3)cc(N3CCOCC3)cc2n1-c1ccnc2c(Cl)cccc12 [Example 246, 4-[3-(8-chloroquinolin-4-yl)-2-methyl-7-pyrazin-2-ylbenzimidazol-5-yl]morpholine] | 5.96
Cc1nc2c(-c3nnc[nH]3)cc(N3CCOCC3)cc2n1-c1cc(-c2ccccc2)nc2ccccc12 [Example 59, 4-[2-methyl-3-(2-phenylquinolin-4-yl)-7-(4H-1,2,4-triazol-3-yl)benzimidazol-5-yl]morpholine] | 6.89
Fc1ccc(F)c2c(-n3cnc4c(-c5cnc(C(F)(F)F)[nH]5)cc(N5CCOCC5)cc43)ccnc12 [Example 390, 4-(1-(5,8-difluoroquinolin-4-yl)-4-(2-(trifluoromethyl)-1H-imidazol-5-yl)-1H-benzo[d]imidazol-6-yl)morpholine] | 6.08
CCc1c(C)nc2ccccc2c1-n1cnc2c(-c3nc(C)n[nH]3)cc(N3CCOCC3)cc21 [Example 75, 4-[3-(3-ethyl-2-methylquinolin-4-yl)-7-(3-methyl-1H-1,2,4-triazol-5-yl)benzimidazol-5-yl]morpholine] | 7.54
Cc1cc(-n2c(C)nc3c(-c4cnc(Cl)[nH]4)cc(N4CCOCC4)cc32)c2cccc(F)c2n1 [Example 282, 4-[7-(2-chloro-1H-imidazol-5-yl)-3-(8-fluoro-2-methylquinolin-4-yl)-2-methylbenzimidazol-5-yl]morpholine] | 7.60
Cc1nnc(-c2cc(N3CCOCC3)cc3c2nc(C)n3-c2ccnc3c(F)ccc(F)c23)[nH]1 [Example 51, 4-(1-(5,8-difluoroquinolin-4-yl)-2-methyl-4-(5-methyl-4H-1,2,4-triazol-3-yl)-1H-benzo[d]imidazol-6-yl)morpholine] | 7.82
Cc1nnc(-c2cc(N3CCOCC3)cc3c2nc(CC(C)C)n3-c2ccnc3c(Cl)cccc23)[nH]1 [Example 2, 4-(1-(8-chloroquinolin-4-yl)-2-isobutyl-4-(5-methyl-4H-1,2,4-triazol-3-yl)-1H-benzo[d]imidazol-6-yl)morpholine] | 7.62

Next, values leading:

pIC50 | Compound
8.10 | Cc1cnc2c(Cl)cccc2c1-n1c(C)nc2c(-c3nnc[nH]3)cc(N3CCOCC3)cc21 [Example 68, 4-[3-(8-chloro-3-methylquinolin-4-yl)-2-methyl-7-(4H-1,2,4-triazol-3-yl)benzimidazol-5-yl]morpholine]
8.00 | Cc1nc2c(-c3ncc[nH]3)cc(N3CCOCC3)cc2n1-c1ccnc2c(Cl)cccc12 [Example 175, 4-[3-(8-chloroquinolin-4-yl)-7-(1H-imidazol-2-yl)-2-methylbenzimidazol-5-yl]morpholine]
7.77 | Clc1cccc2c(-n3c(-c4cnco4)nc4c(-c5nnc[nH]5)cc(N5CCOCC5)cc43)ccnc12 [Example 112, 4-[3-(8-chloroquinolin-4-yl)-2-(1,3-oxazol-5-yl)-7-(4H-1,2,4-triazol-3-yl)benzimidazol-5-yl]morpholine]
7.80 | CCc1nc2c(-c3ncco3)cc(N3CCOCC3)cc2n1-c1ccnc2c(F)cccc12 [Example 213, 4-[2-ethyl-3-(8-fluoroquinolin-4-yl)-7-(1,3-oxazol-2-yl)benzimidazol-5-yl]morpholine]
7.89 | Cc1nc2c(-c3nnc[nH]3)cc(N3CCOCC3)cc2n1-c1ccnc2c(F)cccc12 [Example 140, 4-[3-(8-fluoroquinolin-4-yl)-2-methyl-7-(4H-1,2,4-triazol-3-yl)benzimidazol-5-yl]morpholine]
8.05 | Cc1nc2c(-c3nccs3)cc(N3CCOCC3)cc2n1-c1ccnc2c(Cl)cccc12 [Example 244, 4-[3-(8-chloroquinolin-4-yl)-2-methyl-7-(1,3-thiazol-2-yl)benzimidazol-5-yl]morpholine]
7.77 | CCCc1nc2c(-c3cnc(Cl)[nH]3)cc(N3CCOCC3)cc2n1-c1ccnc2c(F)ccc(F)c12 [Example 299, 4-[7-(2-chloro-1H-imidazol-5-yl)-3-(5,8-difluoroquinolin-4-yl)-2-propylbenzimidazol-5-yl]morpholine]
7.80 | Cc1nnc(-c2cc(N3CCOCC3)cc3c2ncn3-c2ccnc3c(Cl)cccc23)[nH]1 [Example 134, 4-[3-(8-chloroquinolin-4-yl)-7-(5-methyl-4H-1,2,4-triazol-3-yl)benzimidazol-5-yl]morpholine]
8.00 | CCCc1nc2c(-c3nnc[nH]3)cc(N3CCOCC3)cc2n1-c1ccnc2c(Cl)c(F)ccc12 [Example 34, 4-(1-(8-chloro-7-fluoroquinolin-4-yl)-2-propyl-4-(4H-1,2,4-triazol-3-yl)-1H-benzo[d]imidazol-6-yl)morpholine]
